Experiment in all cases: NCI tumour cell line growth inhibition, 48 h
Test [1] concerns HCC-2998 colon.
Test [2] has as its system HL-60(TB) leukemia.
Test [3] has as its system NCI-H23 lung.
In test [4] the test system is NCI-H460 lung.
The test system of test [5] is EKVX NSCLC.
For test [6], the system named is MDA-MB-231 breast.
The test system of test [7] is SK-MEL-28 melanoma.
For test [8], the system named is SNB-75 CNS.
Test [9] concerns OVCAR-5 ovarian.
The test system of test [10] is SK-MEL-5 melanoma.

“And” between values parts separate entries of the source, which are not always exact repeats. Equal values may be shown once.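 48-hour exposure; five concentrations; linearly interpolated endpoints. GI50 marks 50% less growth. TGI marks complete inhibition of growth.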

As to `COc1cc2c3c(n(CCCNC(C)(C)CO)c(=O)c2cc1OC)-c1cc2c(cc1C3=O)OCO2`, the GI50 in [1] is 1390 nM; in test [2] it was 539 nM; in test [3], 799 nM; in test [4], 1.15 µM; in test [5] it was 16.6 µM; in [6], 1230 nM. The GI50 in [7] is 25.4 µM; in test [8], 2.58 µM; in test [9] it was 16.3 µM; in test [10], 3500 nM. The TGI in [1] was 7.87 µM; in [2] it was 4.16 µM; in test [3], 12.3 µM; in test [4], > 69.2 µM; in test [5], 42.7 µM; in test [6] it was 7 µM. In addition, the TGI is > 65.6 µM in test [7], 44 µM in test [8], 36.8 µM in test [9] and 13.3 µM in [10].
In the case of `Cc1cccc2c1NC(=O)[C@@H](NC(=O)[C@H](CCC(F)(F)F)[C@H](CCC(F)(F)F)C(N)=O)N=C2c1cccc(F)c1`, the GI50 was 60000 nM in test [1]; > 100000 nM in [2]; 30500 nM in test [3]; 31.3 µM in test [4]; 40.5 µM in test [5]; 18200 nM in [6]. Moreover, the GI50 in test [7] is > 100 µM; in [8], 10.8 µM; in test [9], 86.4 µM; in test [10], > 100000 nM. For the same compound, the TGI is > 100 µM in test [1]; > 100 µM in [2]; > 100 µM in [3]; > 100 µM in test [4]; > 100 µM in test [5]; 59.1 µM in test [6]. The TGI in [7] is > 100 µM; in test [8], 32.1 µM; in test [9], > 100 µM; in [10], > 100 µM.
Consider `CN1CCN(C(=O)OCc2nc3c(N4CCOCC4)nc(-c4ccccc4)nc3n2C)CC1`, for which the GI50 in test [1] was 1580 nM; in test [2] it was 753 nM; in test [3], 1540 nM; in test [4] it was 1.48 µM; in [5], 1.39 µM; in test [6], 1090 nM. Moreover, the GI50 in test [7] was 1.48 µM; in test [8] it was 1.04 µM; in test [9], 1.46 µM; in [10], 1500 nM. Further, the TGI in test [1] was 3.21 µM; in test [2], 2.66 µM; in [3] it was 3.21 µM; in test [4], 3.06 µM; in [5], 2.94 µM; in test [6], 2.37 µM. For the same compound, the TGI in test [7] was determined as 2.81 µM; in test [8], 2.27 µM; in test [9], 3 µM; in [10] it was 2.85 µM.
For the compound `O=C(CSc1nc2ccc([N+](=O)[O-])cc2[nH]1)Nc1ccc([N+](=O)[O-])cc1`, the GI50 is 3000 nM in test [1]; 2810 nM in [2]; 2140 nM in test [3]; 2.9 µM in [4]; 2.23 µM in test [5]; 2080 nM in test [6]. Also, the GI50 in test [7] was 2.82 µM; in [8], 1.84 µM; in [9] it was 2.78 µM; in test [10], 1200 nM. The TGI in test [1] is 15.3 µM; in [2], > 25.7 µM; in test [3], 9.51 µM; in test [4], 12.3 µM; in test [5], 10.8 µM; in test [6], 6.31 µM. Moreover, the TGI in test [7] is 14.2 µM; in test [8], 6.95 µM; in test [9], 12.9 µM; in test [10], 2.54 µM.
As to `N#C/C(=C\c1ccc([N+](=O)[O-])cc1)n1nnc2cc(F)c(F)cc21`, the GI50 is 1670 nM in [1]; 2360 nM in test [2]; 1870 nM in test [3]; 2.3 µM in test [4]; 1.7 µM in [5]; 1970 nM in test [6]. For the same compound, the GI50 in [7] was 2.26 µM; in [8], 1.52 µM; in test [9], 1.77 µM; in [10] it was 1890 nM. In addition, the TGI was 3.36 µM in test [1]; 5.78 µM in test [2]; 4.08 µM in test [3]; 5.84 µM in [4]; 3.56 µM in test [5]; 4.84 µM in test [6]. In addition, the TGI in [7] was found to be 4.97 µM; in test [8], 3.02 µM; in test [9], 3.41 µM; in test [10], 3.69 µM.
As to `O=C(NCCNc1nccc(-c2c(-c3ccc(F)cc3)nc3sccn23)n1)Nc1cccc(C(F)(F)F)c1`, the GI50 in test [1] is 5210 nM; in [2], 11500 nM; in [3], 8730 nM; in test [4] it was 4.51 µM; in test [5], 4.69 µM; in [6], 3280 nM. Further, the GI50 in [7] is 7.76 µM; in [8] it was 7.13 µM; in test [9], 18.5 µM; in [10], 1580 nM. For the same compound, the TGI in [1] is 17.7 µM; in test [2], > 100 µM; in test [3], 26.4 µM; in test [4], 17.5 µM; in test [5], 30.6 µM; in test [6] it was 10.1 µM. Further, the TGI in test [7] turned out to be 20.9 µM; in test [8] it was 21.7 µM; in test [9] it was 54.4 µM; in test [10], 3.43 µM.
For `Nc1nc(N)c2cc(Sc3ccc(Cl)cc3)ccc2n1`, the GI50 in [1] is 1080 nM; in [2], 600 nM; in test [3] it was 1380 nM; in test [4] it was 0.314 µM; in test [5], 1.66 µM; in [6], 1720 nM. Besides, the GI50 in test [7] is 2.68 µM; in [8], 5.89 µM; in test [9], 2.05 µM; in [10], 762 nM. Besides, the TGI stood at 2.43 µM in test [1]; 2.47 µM in test [2]; 15.6 µM in test [3]; 11.9 µM in [4]; 17.6 µM in test [5]; 4.21 µM in test [6]. Besides, the TGI in [7] is 8.05 µM; in test [8], 18.7 µM; in [9], 17.5 µM; in test [10] it was 2.06 µM.
Consider `CSc1nc(SC)c2c(C)cn(Cc3ccccc3)c2n1`, for which the TGI in [1], in test [2], in test [3], in [4], in test [5] and in test [6] was > 100 µM throughout. The TGI in test [7], in test [8], in test [9] and in [10] was > 100 µM each time.
In the case of `CCN1C2=C(SC(=S)C1=C1SC(C(=O)c3ccccc3)=C(C(=O)c3ccccc3)S1)SC(=Nc1ccccc1)C2=O`, the GI50 in test [1] was > 100000 nM; in [2] it was > 100000 nM; in [3], 5430 nM; in [4], 27.8 µM; in test [5], 80.4 µM; in test [6], 13600 nM. Besides, the GI50 in test [7] is 26.4 µM; in test [8], 12.6 µM; in test [9], > 100 µM; in [10] it was > 70800 nM. Moreover, the TGI in test [1], in test [2], in test [3], in [4], in test [5] and in [6] was > 100 µM each time. In addition, the TGI in test [7] is > 100 µM; in [8], > 63.4 µM; in test [9], > 100 µM; in test [10], > 100 µM.
For the compound `Nc1ncnc2occ(-c3ccc(NC(=O)Nc4cc(C(F)(F)F)ccc4F)cc3)c12`, the GI50 in test [1] is 8020 nM and 3980 nM; in test [2], 6880 nM and 6160 nM; in [3], 4620 nM and 2090 nM; in test [4], 4.86 µM and 2.96 µM; in test [5] it was 5.12 µM and 3.97 µM; in [6], 7930 nM and 3800 nM. Moreover, the GI50 in test [7] was 5.73 µM and 4.57 µM; in [8], 3.87 µM and 3.93 µM; in [9], 6.44 µM and 5.95 µM; in test [10], 3560 nM and 3570 nM. Besides, the TGI in test [1] was 19 µM and 8.87 µM; in [2], 16 µM and 14.7 µM; in test [3] it was 12.9 µM and 6.86 µM; in test [4], 11.2 µM and 6.94 µM; in test [5] it was 16.6 µM and 13.2 µM; in test [6], 23.1 µM and 12.4 µM. Besides, the TGI was 14.3 µM and 11.5 µM in test [7]; 9.56 µM and 10.3 µM in test [8]; 16.2 µM and 13.7 µM in [9]; 7.02 µM and 6.93 µM in [10].
As to `Oc1c(CCl)cc(Cl)cc1Cc1cc(Cl)cc(Cc2cc(Cl)cc(CCl)c2O)c1O`, the GI50 in test [1] was 2800 nM; in [2] it was 2480 nM; in test [3] it was 2180 nM; in test [4] it was 3.26 µM; in test [5], 2.89 µM; in test [6], 2640 nM. In addition, the GI50 is 3.1 µM in test [7], 3.95 µM in [8], 12.2 µM in test [9] and 1910 nM in test [10]. In addition, the TGI in test [1] is 12.2 µM; in [2], 8.13 µM; in [3], 7.31 µM; in test [4], 11 µM; in test [5], 15.8 µM; in test [6], 7.63 µM. For the same compound, the TGI in [7] was determined as 16.1 µM; in [8], 80.2 µM; in test [9] it was 38.7 µM; in test [10], 4.19 µM.
Take `CC12OC(C(=O)C13CC3)C1C(=O)c3cccc(O)c3C(=O)C12` (stereo not drawn): the GI50 is 18500 nM in test [1]; 7550 nM in test [3]; 18.6 µM in [4]; 11.8 µM in test [5]; 2430 nM in test [6]; 23.1 µM in test [7]. The GI50 was 12.5 µM in [8], 24.5 µM in test [9] and 6790 nM in test [10]. In addition, the TGI in test [1] came out at 46.7 µM; in test [2], 0.539 µM; in test [3] it was 22.7 µM; in [4], 68.3 µM; in [5], 37.6 µM; in test [6] it was 16.3 µM. Also, the TGI was > 61.4 µM in test [7], > 37.4 µM in [8], > 66.3 µM in test [9] and > 100 µM in test [10].
For `CC(C)[C@]12O[C@H]1[C@@H]1O[C@]13[C@]1(O[C@H]1C[C@H]1C4=C(CC[C@@]13C)C(=O)OC4)[C@@H]2OC(=O)OC(C)(C)C`, the GI50 was 16.6 nM in test [1]; < 10 nM in test [2]; < 10 nM in test [3]; < 0.01 µM in test [4]; 0.0573 µM in [5]; 54.3 nM in [6]. The GI50 in test [7] is 0.0176 µM; in test [8] it was 0.0193 µM; in [9], 0.0419 µM; in [10] it was 11.4 nM. The TGI in [1] is 0.064 µM; in test [2], 0.805 µM; in [3], 0.0569 µM; in [4] it was > 33.6 µM; in test [5] it was > 100 µM; in test [6], > 100 µM. For the same compound, the TGI in test [8] was 0.062 µM; in test [9], > 100 µM; in test [10], 0.0247 µM.
With `OC1CCC(COC(c2ccccc2)(c2ccccc2)c2ccccc2)O1` (stereo not drawn), the TGI in test [1] is 35.6 µM; in test [2] it was 39.7 µM; in [3], 35.4 µM; in [4], 44.5 µM; in test [5], > 10 µM; in test [6] it was 32.1 µM. The TGI in test [7] is 33.4 µM; in [8] it was 26.5 µM; in test [9], 45.2 µM; in test [10], 30.9 µM.
For `CSc1nc(SC)c2cnn(-c3ccnc4cc(Cl)ccc34)c2n1`, the GI50 was 82700 nM in [1]; 21500 nM in test [2]; 21200 nM in test [3]; 9.36 µM in test [4]; 25.9 µM in test [5]; 20000 nM in test [6]. Moreover, the GI50 in test [7] was > 100 µM; in test [8] it was > 67.8 µM; in test [9], > 100 µM; in test [10], 51900 nM. Further, the TGI is > 100 µM in test [1]; 50.6 µM in test [2]; > 54.9 µM in test [3]; > 45.6 µM in [4]; 70.5 µM in test [5]; 67.4 µM in [6]. Besides, the TGI in test [7], in [8], in [9] and in test [10] was > 100 µM throughout.

For the origin of these results see PubChem BioAssay (NCI).
